Earlier results in US20250350689A1, “INTRAVENOUS DOFETILIDE AND USES THEREOF” (Hyloris Developments SA, priority 2023, published 2025).
Values joined by “and” are separate entries in the source; they are usually repeats but may differ in a detail not shown here. Equal entries are not always repeated. Where two headings read alike, the source gives them in different places.

Key:
[1] = not given; remark: listed apart in the source
QTc interval = details: slope of QTc versus dofetilide plasma concentration, Sedgwick et al
[2] = clinical studies, life threatening arrhythmias

SMILES: CN(CCOc1ccc(NS(C)(=O)=O)cc1)CCc1ccc(NS(C)(=O)=O)cc1 [dofetilide]
- plasma concentration Cmax (500 μg oral dose, single dose): 1.9 ng/mL
- time to reach a steady state concentration (oral dofetilide): at least 3 days
- plasma concentration ([1]; infusion of 3.0 μg/mL): 5.35 ng/mL
- IV dofetilide kinetics ([1]; relationship between IV dose and serum concentration): linear
- peak plasma concentration ([1]; single dose, 10 min. IV infusion of 1.5 μg/kg): 1.74 ng/mL and 1.7 ng/mL
- QTc change per plasma concentration (QTc interval): 15 to 25 ms/ng/mL
- safety in patients with poor heart function / heart failure [2]: not to increase life threatening arrhythmias
- safety in patients with poor heart function / heart failure ([2]; listed as Dofetilide): safe
